Results from patent publication US11802120B2, “Fused cyclic urea derivatives as CRHR2 antagonist” (RaQualia Pharma Inc., priority 2018, dated 2023).

Biological target: T1, human CRHR2-alpha (Homo sapiens, UniProt Q13324)
T1 sequence (Q13324 1-411): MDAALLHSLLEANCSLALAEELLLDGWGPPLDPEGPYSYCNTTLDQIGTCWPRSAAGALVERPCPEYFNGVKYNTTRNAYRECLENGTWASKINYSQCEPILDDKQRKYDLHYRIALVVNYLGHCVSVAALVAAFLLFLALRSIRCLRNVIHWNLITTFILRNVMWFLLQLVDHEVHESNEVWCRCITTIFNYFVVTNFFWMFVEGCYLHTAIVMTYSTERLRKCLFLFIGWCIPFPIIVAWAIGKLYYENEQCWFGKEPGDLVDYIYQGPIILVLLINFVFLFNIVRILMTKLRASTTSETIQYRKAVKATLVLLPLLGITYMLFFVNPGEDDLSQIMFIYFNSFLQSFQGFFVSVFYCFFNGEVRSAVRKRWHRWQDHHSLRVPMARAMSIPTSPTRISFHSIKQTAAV
Experiment: cAMP functional assay for human CRHR2 (LANCE Ultra cAMP, TR-FRET)
Type: cell-based
Settings: CHO-K1 cells expressing human CRHR2-alpha, agonist human urocortin2 at EC80, cAMP; read-out: IC50 against CRHR2
In short: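 IC50 values derive from percent inhibition of EC80 agonist-stimulated cAMP in CHO-K1 transfectants, with 0.5 mM IBMX present; the CRHR2 line was stimulated by human urocortin2 and the CRHR1 line by CRF.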

| IC50 | Structure (SMILES) |
| --- | --- |
| < 300 nM | O=C(N[C@H]1CC[C@H](Cn2c(=O)n(-c3ccc4cnccc4c3)c3ccccc32)CC1)c1cc(Cl)cnc1C(F)(F)F [Example 398, 5-chloro-N-((1r,4r)-4-((3-(isoquinolin-6-yl)-2-oxo-2,3-dihydro-1H-benzo[d]imidazol-1-yl)methyl)cyclohexyl)-2-(trifluoromethyl)nicotinamide] |
| < 300 nM | COc1cc(-n2c(=O)n(C[C@H]3CC[C@H](NC(=O)c4cc(Cl)cnc4C(F)F)CC3)c3cccnc32)ccc1F [Example 399, 5-chloro-2-(difluoromethyl)-N-((1r,4r)-4-((3-(4-fluoro-3-methoxyphenyl)-2-oxo-2,3-dihydro-1H-imidazo[4,5-b]pyridin-1-yl)methyl)cyclo-hexyl)nicotinamide] |
| < 300 nM | CC(=O)c1ccc(-n2c(=O)n(C[C@H]3CC[C@H](NC(=O)c4cc(Cl)cnc4C(F)F)CC3)c3cccnc32)cc1 [Example 400, N-((1r,4r)-4-((3-(4-acetylphenyl)-2-oxo-2,3-dihydro-1H-imidazo [4,5-b]pyridin-1-yl)methyl)cyclo-hexyl)-5-chloro-2-(difluoro-methyl)nicotinamide] |
| < 300 nM | COc1ccc(-n2c(=O)n(C[C@H]3CC[C@H](NC(=O)c4cc(Cl)cnc4C)CC3)c3cccnc32)cc1OC1CCCC1 [Example 401, 5-chloro-N-((1r,4r)-4-((3-(3-(cyclopentyloxy)-4-methoxy-phenyl)-2-oxo-2,3-dihydro-1H-imidazo[4,5-b]pyridin-1-yl)methyl)cyclohexyl)-2-methylnicotinamide] |
| < 300 nM | CCOc1ccc(-n2c(=O)n(C[C@H]3CC[C@H](NC(=O)c4cc(Cl)cnc4C)CC3)c3cccnc32)cc1 [Example 402, 5-chloro-N-((1r,4r)-4-((3-(4-ethoxyphenyl)-2-oxo-2,3-dihydro-1H-imidazo[4,5-b]pyridin-1-yl)methyl)cyclo-hexyl)-2-methylnicotinamide] |
| < 300 nM | Cc1ncc(Cl)cc1C(=O)N[C@H]1CC[C@H](Cn2c(=O)n(-c3ccc4c(c3)cc(C(N)=O)n4C)c3ccccc32)CC1 [Example 403, 5-(3-(((1r,4r)-4-(5-chloro-2-methylnicotinamido)cyclo-hexyl)methyl)-2-oxo-2,3-dihydro-1H-benzo[d]imidazol-1-yl)-1-methyl-1H-indole-2-carboxamide] |
| < 300 nM | CNC(=O)c1cc2cc(-n3c(=O)n(C[C@H]4CC[C@H](NC(=O)c5cc(Cl)cnc5C)CC4)c4ccccc43)ccc2n1C [Example 404, 5-(3-(((1r,4r)-4-(5-chloro-2-methylnicotinamido)cyclo-hexyl)methyl)-2-oxo-2,3-dihydro-1H-benzo[d]imidazol-1-yl)-N,1-dimethyl-1H-indole-2-carboxamide] |
| < 300 nM | Cc1ncc(Cl)cc1C(=O)N[C@H]1CC[C@H](Cn2c(=O)n(-c3ccc4c(c3)cc(C(=O)N(C)C)n4C)c3ccccc32)CC1 [Example 405, 5-(3-(((1r,4r)-4-(5-chloro-2-methylnicotinamido)cyclo-hexyl)methyl)-2-oxo-2,3-dihydro-1H-benzo[d]imidazol-1-yl)-N,N,1-trimethyl-1H-indole-2-carboxamide] |
| < 300 nM | Cn1cnc2ccc(-n3c(=O)n(C[C@H]4CC[C@H](NC(=O)c5cc(Cl)cnc5C(F)F)CC4)c4ccccc43)cc21 [Example 406, 5-chloro-2-(difluoromethyl)-N-((1r,4r)-4-((3′-methyl-2-oxo-3′H-[1,5′-bibenzo[d]imidazol]-3(2H)-yl)methyl)cyclohexyl) nicotinamide] |
| < 300 nM | O=C(N[C@H]1CC[C@H](Cn2c(=O)n(-c3ccc4nccnc4c3)c3ccccc32)CC1)c1cc(Cl)cnc1C(F)(F)F [Example 407, 5-chloro-N-((1r,4r)-4-((2-oxo-3-(quinoxalin-6-yl)-2,3-dihydro-1H-benzo[d]imidazol-1-yl)methyl)cyclohexyl)-2-(trifluoromethyl)nicotinamide] |
| < 300 nM | Cc1ncc(Cl)cc1C(=O)N[C@H]1CC[C@H](Cn2c(=O)n(-c3cnc4[nH]ccc4c3)c3ccccc32)CC1 [Example 408, 5-chloro-2-methyl-N-((1r,4r)-4-((2-oxo-3-(1H-pyrrolo[2,3-b]pyridin-5-yl)-2,3-dihydro-1H-benzo[d]imidazol-1-yl)methyl)cyclohexyl)nicotinamide] |
| < 300 nM | Cc1ncc(Cl)cc1C(=O)N[C@H]1CC[C@H](Cn2c(=O)n(-c3cnc4c(c3)c(C)cn4C)c3ccccc32)CC1 [Example 409, 5-chloro-N-((1r,4r)-4-((3-(1,3-dimethyl-1H-pyrrolo[2,3-b]pyridin-5-yl)-2-oxo-2,3-dihydro-1H-benzo[d]imidazol-1-yl)methyl)cyclohexyl)-2-methylnicotinamide] |
| < 300 nM | O=C(NCCF)c1ccc(-n2c(=O)n(C[C@H]3CC[C@H](NC(=O)c4cc(Cl)cnc4C(F)(F)F)CC3)c3ccccc32)cn1 [Example 410, 5-(3-(((1r,4r)-4-(5-chloro-2-(trifluoromethyl)nicotinamido)cyclohexyl)methyl)-2-oxo-2,3-dihydro-1H-benzo[d]imidazol-1-yl)-N-(2-fluoroethyl) picolinamide] |
| < 300 nM | O=C(NCC(F)F)c1ccc(-n2c(=O)n(C[C@H]3CC[C@H](NC(=O)c4cc(Cl)cnc4C(F)(F)F)CC3)c3ccccc32)cn1 [Example 411, 5-(3-(((1r,4r)-4-(5-chloro-2-(trifluoromethyl)nicotinamido)cyclohexyl)methyl)-2-oxo-2,3-dihydro-1H-benzo[d]imidazol-1-yl)-N-(2,2-difluoroethyl) picolinamide] |
| < 300 nM | Cc1ncc(Cl)cc1C(=O)N[C@H]1CC[C@H](Cn2c(=O)n(-c3ccc(SCCO)nc3)c3ccccc32)CC1 [Example 412, 5-chloro-N-((1r,4r)-4-((3-(6-((2-hydroxyethyl)thio)pyridin-3-yl)-2-oxo-2,3-dihydro-1H-benzo[d]imidazol-1-yl)methyl)cyclohexyl)-2-methylnicotinamide] |
| < 300 nM | Cc1ncc(Cl)cc1C(=O)N[C@H]1CC[C@H](Cn2c(=O)n(-c3cncc(N4CCOCC4)c3)c3ccccc32)CC1 [Example 413, 5-chloro-2-methyl-N-((1r,4r)-4-((3-(5-morpholinopyridin-3-yl)-2-oxo-2,3-dihydro-1H-benzo[d]imidazol-1-yl)methyl)cyclohexyl)nicotinamide] |
| < 300 nM | O=C(N[C@H]1CC[C@H](Cn2c(=O)n(-c3ccn4cncc4c3)c3ccccc32)CC1)c1cc(Cl)cnc1C(F)F [Example 415, 5-chloro-2-(difluoromethyl)-N-((1r,4r)-4-((3-(imidazo[1,5-a]pyridin-7-yl)-2-oxo-2,3-dihydro-1H-benzo[d]imidazol-1-yl)methyl)cyclohexyl)nicotinamide] |
| < 300 nM | COCCOc1ccc(-n2c(=O)n(C[C@H]3CC[C@H](NC(=O)c4cc(Cl)cnc4C(F)(F)F)CC3)c3ccccc32)cn1 [Example 416, 5-chloro-N-((1r,4r)-4-((3-(6-(2-methoxyethoxy)pyridin-3-yl)-2-oxo-2,3-dihydro-1H-benzo [d]imidazol-1-yl)methyl)cyclo-hexyl)-2-(trifluoromethyl) nicotinamide] |
| < 300 nM | COCCOc1ccc(-n2c(=O)n(C[C@H]3CC[C@H](NC(=O)c4cc(Cl)cnc4C)CC3)c3ccccc32)cn1 [Example 417, 5-chloro-N-((1r,4r)-4-((3-(6-(2-methoxyethoxy)pyridin-3-yl)-2-oxo-2,3-dihydro-1H-benzo[d]imidazol-1-yl)methyl)cyclohexyl)-2-methylnicotinamide] |
